Laboratory results from PubChem BioAssay AID1963958 (Molecular Pharmacology Branch, DTP, NCI, 2024).
pIC50: −log10 of the molar value.

Test system: MDA-MB-231 multicell spheroids, viability
Experiment: Anticancer human tumor MDA-MB-231 cell line growth inhibition [PI3K];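 note: spheroids exposed to agents for seven days before reading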;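 for viability, T/C: percent of vehicle control luminescence with DMSO treated spheroids as 100%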
Conditions: for pIC50: curve of first compound; for viability, T/C: stronger effect = lower value
In short: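 Complex 3D spheroids (cancer cells + endothelial HUVEC + mesenchymal stem cells); drug pairs of targeted agent x inavolisib/alpelisib/duvelisib/copanlisib; half-log series from ~Cmax, max 10 microM if Cmax unknown; endpoint viability.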

[1] = second compound 0.0316 µM, first compound 0.0316 µM
[2] = second compound 0.0316 µM, first compound 0.1 µM
[3] = second compound 0.0316 µM, first compound 0.316 µM
[4] = second compound 0.0316 µM, first compound 1 µM
[5] = second compound 0.0316 µM, first compound 3.16 µM
[6] = second compound 0.0316 µM, first compound 10 µM
[7] = second compound 0.1 µM, first compound 0.0316 µM
[8] = second compound 0.1 µM, first compound 0.1 µM
[9] = second compound 0.1 µM, first compound 0.316 µM
[10] = second compound 0.1 µM, first compound 1 µM
[11] = second compound 0.1 µM, first compound 3.16 µM
[12] = second compound 0.1 µM, first compound 10 µM
[13] = second compound 0.316 µM, first compound 0.0316 µM
[14] = second compound 0.316 µM, first compound 0.1 µM
[15] = second compound 0.316 µM, first compound 0.316 µM
[16] = second compound 0.316 µM, first compound 1 µM
[17] = second compound 0.316 µM, first compound 3.16 µM
[18] = second compound 0.316 µM, first compound 10 µM
[19] = second compound 1 µM, first compound 0.0316 µM
[20] = second compound 1 µM, first compound 0.1 µM
[21] = second compound 1 µM, first compound 0.316 µM
[22] = second compound 1 µM, first compound 1 µM
[23] = second compound 1 µM, first compound 3.16 µM
[24] = second compound 1 µM, first compound 10 µM
[25] = second compound 3.16 µM, first compound 0.0316 µM
[26] = second compound 3.16 µM, first compound 0.1 µM
[27] = second compound 3.16 µM, first compound 0.316 µM
[28] = second compound 3.16 µM, first compound 1 µM
[29] = second compound 3.16 µM, first compound 3.16 µM
[30] = second compound 3.16 µM, first compound 10 µM
[31] = second compound 10 µM, first compound 0.0316 µM
[32] = second compound 10 µM, first compound 0.1 µM
[33] = second compound 10 µM, first compound 0.316 µM
[34] = second compound 10 µM, first compound 1 µM
[35] = second compound 10 µM, first compound 3.16 µM
[36] = second compound 10 µM, first compound 10 µM

Structure (SMILES): Cn1ncc(Cl)c1-c1cc(C(=O)NC(CN)Cc2cccc(F)c2)sc1Cl (centres undefined) + Cc1nc(NC(=O)N2CCCC2C(N)=O)sc1-c1ccnc(C(C)(C)C(F)(F)F)c1
- pIC50 (second compound 0.0316 µM): 5.48
- pIC50 (second compound 0.1 µM): 5.57
- pIC50 (second compound 0.316 µM): 5.72
- pIC50 (second compound 1 µM): 5.72
- pIC50 (second compound 3.16 µM): 5.74
- pIC50 (second compound 10 µM): 5.61
- viability, T/C [1]: 104%
- viability, T/C [2]: 89.2%
- viability, T/C [3]: 82.9%
- viability, T/C [4]: 71.8%
- viability, T/C [5]: 49.9%
- viability, T/C [6]: 28.8%
- viability, T/C [7]: 86.6%
- viability, T/C [8]: 83.3%
- viability, T/C [9]: 81%
- viability, T/C [10]: 66.2%
- viability, T/C [11]: 47.8%
- viability, T/C [12]: 24.4%
- viability, T/C [13]: 76%
- viability, T/C [14]: 80.8%
- viability, T/C [15]: 70.5%
- viability, T/C [16]: 64.8%
- viability, T/C [17]: 38.8%
- viability, T/C [18]: 25.1%
- viability, T/C [19]: 67.7%
- viability, T/C [20]: 72.3%
- viability, T/C [21]: 64.3%
- viability, T/C [22]: 57%
- viability, T/C [23]: 44.4%
- viability, T/C [24]: 24.5%
- viability, T/C [25]: 72.1%
- viability, T/C [26]: 66.6%
- viability, T/C [27]: 66.7%
- viability, T/C [28]: 57.6%
- viability, T/C [29]: 42.7%
- viability, T/C [30]: 26.6%
- viability, T/C [31]: 69%
- viability, T/C [32]: 62%
- viability, T/C [33]: 57.9%
- viability, T/C [34]: 60.4%
- viability, T/C [35]: 48%
- viability, T/C [36]: 23.5%

Structure (SMILES): Cn1nccc1Nc1nccc(-c2ccn(C(CO)c3ccc(Cl)c(F)c3)c(=O)c2)n1 (centres undefined) + Cc1nc(NC(=O)N2CCCC2C(N)=O)sc1-c1ccnc(C(C)(C)C(F)(F)F)c1
- pIC50 (second compound 0.0316 µM): 6.21
- pIC50 (second compound 0.1 µM): 6.37
- pIC50 (second compound 0.316 µM): 6.82
- pIC50 (second compound 1 µM): 7.06
- pIC50 (second compound 3.16 µM): 7.24
- pIC50 (second compound 10 µM): > 7.50
- viability, T/C [1]: 75.6%
- viability, T/C [2]: 65%
- viability, T/C [3]: 56.1%
- viability, T/C [4]: 45.3%
- viability, T/C [5]: 36.5%
- viability, T/C [6]: 26%
- viability, T/C [7]: 66.2%
- viability, T/C [8]: 58.1%
- viability, T/C [9]: 54%
- viability, T/C [10]: 41.6%
- viability, T/C [11]: 35.7%
- viability, T/C [12]: 22.4%
- viability, T/C [13]: 62.2%
- viability, T/C [14]: 49.5%
- viability, T/C [15]: 46.7%
- viability, T/C [16]: 37.6%
- viability, T/C [17]: 29.3%
- viability, T/C [18]: 21.9%
- viability, T/C [19]: 56.6%
- viability, T/C [20]: 47.2%
- viability, T/C [21]: 43.6%
- viability, T/C [22]: 34.6%
- viability, T/C [23]: 25.1%
- viability, T/C [24]: 19.7%
- viability, T/C [25]: 53.8%
- viability, T/C [26]: 47.2%
- viability, T/C [27]: 37.8%
- viability, T/C [28]: 34.3%
- viability, T/C [29]: 24.2%
- viability, T/C [30]: 16.7%
- viability, T/C [31]: 43.2%
- viability, T/C [32]: 37.1%
- viability, T/C [33]: 33%
- viability, T/C [34]: 29.6%
- viability, T/C [35]: 21.9%
- viability, T/C [36]: 10.6%
